This assay relates to SN12K1 renal. Kind of assay: DTP human tumour cell line panel, 48 h.

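A five-concentration, 48-hour dose response in 96-well plates underlies each endpoint, interpolated linearly between surrounding concentrations. Definition used: TGI = concentration required for complete inhibition of growth.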

`CC1=C(C(=O)Nc2ccc(Cl)c(C(=O)OC(C)C)c2)SCCO1` registered a TGI of 63.1 µM.
Take `NS(=O)(=O)OCCCCCCCOS(N)(=O)=O`: the TGI is 605 µM.

These data come from PubChem BioAssay (NCI).
